Some results are limits rather than exact numbers.

In the test the target is T1, human GLP-1R (Homo sapiens, UniProt P43220).
T1 construct: host or cells: HEK293
T1 sequence (P43220 24-463): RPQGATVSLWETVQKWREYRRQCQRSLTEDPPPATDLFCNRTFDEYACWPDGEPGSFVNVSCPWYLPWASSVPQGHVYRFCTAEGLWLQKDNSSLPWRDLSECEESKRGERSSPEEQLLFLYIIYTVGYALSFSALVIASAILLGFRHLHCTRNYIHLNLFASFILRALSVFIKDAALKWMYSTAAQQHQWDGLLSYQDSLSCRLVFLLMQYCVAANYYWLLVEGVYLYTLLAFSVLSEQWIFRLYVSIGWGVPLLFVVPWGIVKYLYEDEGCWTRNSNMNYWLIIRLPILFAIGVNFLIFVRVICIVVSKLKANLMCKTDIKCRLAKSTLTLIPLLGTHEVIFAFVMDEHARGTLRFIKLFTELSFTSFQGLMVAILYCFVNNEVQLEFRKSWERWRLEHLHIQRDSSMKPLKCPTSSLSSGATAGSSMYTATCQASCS
Nature of the test: GLP-1R cAMP assay (Example B1a, HTRF, 30 min at room temperature). The format is cell-based. The note with it: cAMP accumulation in HEK293 expressing human GLP-1R, no BETP, 30 min room temperature (Method B1a, compounds ID 1-609), Table 1; read-out: EC50. As to the method: Assay was carried out with HEK293 expressing human GLP-1R using HTRF assay, developed by Wuxi Apptec. The method is a competitive assay between native cAMP produced by the cells and exogenous cAMP labeled with a proprietary dye d2. The tracer binding is visualized by a mAb anti-cAMP labeled with Cryptate. The signal (i.e. energy transfer) is inversely proportional to the concentration of CAMP in either standard or experimental sample. Compounds were tested in the absence of BETP. Ten microliter of cell suspension in assay buffer (5 mM HEPES, 500 μM IBMX, 0.1% BSA) were added to each well (1,000 cells per well) in a low volume 384-well plate for the assay. Serially diluted compounds were added in 100 nL volume to duplicate wells, by Labcyte Echo. GLP-1 (7-37) was used as positive control. Assay plate was incubated for 30 minutes at room temperature. Stock of cAMP Detection Solution was prepared by mixing 38 parts of cAMP lysis buffer, 1 part of cAMP-D2, 1 part of anti-cAMP cryptate reagent (Cisbio #62AM4PEJ). Ten microliter of the cAMP Detection Solution was added to each well, and the assay plate was incubated for 1 hour at room temperature in the dark. Plates were read on Envision plate reader. The data were analyzed by ScreenUltra in Dotmatics, with % activation expressed using following formula: (Well data−negative control)/(postive control−negative control)*100. Dose response curves were plotted and EC50 values calculated by non-linear regression using 4-parameter fit.
Take `CCc1nccc(-c2ccc3c(c2)cc(C(=O)N2[C@@H]4CC[C@H]2c2c(nn(-c5cc(C)c(F)c(C)c5)c2-n2ccn(-c5ccc6c(cnn6C)c5F)c2=O)C4)n3[C@@]2(c3noc(=O)[nH]3)C[C@@H]2C)c1C` [Compound 219, 3-[(1S,2S)-1-[5-(2-ethyl-3-methyl-4-pyridyl)-2-[(1S,8R)-4-(4-fluoro-3,5-dimethyl-phenyl)-3-[3-(4-fluoro-1-methyl-indazol-5-yl)-2-oxo-imidazol-1-yl]-4,5,11-triazatricyclo[6.2.1.02,6]undeca-2,5-diene-11-carbonyl]indol-1-yl]-2-methyl-cyclopropyl]-4H-1,2,4-oxadiazol-5-one]: the EC50 was 269 nM.
The value for `Cc1cc(-n2nc3c(c2-n2ccn(-c4ccc5c(cnn5C)c4F)c2=O)[C@@H]2CC[C@H](C3)N2C(=O)c2cc3cc(C4CCOC4(C)C)ccc3n2[C@@]2(c3noc(=O)[nH]3)C[C@@H]2C)cc(C)c1F` (stereo partly drawn) [Compound 413, 3-[(1S,2S)-1-[5-(2,2-dimethyltetrahydrofuran-3-yl)-2-[(1S,8R)-4-(4-fluoro-3,5-dimethyl-phenyl)-3-[3-(4-fluoro-1-methyl-indazol-5-yl)-2-oxo-imidazol-1-yl]-4,5,11-triazatricyclo[6.2.1.02,6]undeca-2,5-diene-11-carbonyl]indol-1-yl]-2-methyl-cyclopropyl]-4H-1,2,4-oxadiazol-5-one] was 1770 nM; that for `Cc1cc(-n2nc3c(c2-n2ccn(-c4ccc5c(cnn5C)c4F)c2=O)[C@@H]2COC[C@H](C3)N2C(=O)c2cc3cc([C@H]4CCOC5(CC5)C4)ccc3n2[C@@]2(c3noc(=O)[nH]3)C[C@@H]2C)cc(C)c1F` [Compound 226, 3-((1S,2S)-1-(2-((4R,8S)-3-(3-(4-fluoro-1-methyl-1H-indazol-5-yl)-2-oxo-2,3-dihydro-1H-imidazol-1-yl)-2-(4-fluoro-3,5-dimethylphenyl)-2,4,5,7,8,9-hexahydro-4,8-epiminooxocino [5,4-c]pyrazole-10-carbonyl)-5-((S)-4-oxaspiro[2.5]octan-7-yl)-1H-indol-1-yl)-2-methylcyclopropyl)-1,2,4-oxadiazol-5 (4H)-one] was 435 nM; that for `Cc1cc(-n2nc3c(c2-n2ccn(-c4ccc5cnncc5c4F)c2=O)CN(C(=O)c2cc4cc([C@H]5CCOC(C)(C)C5)ccc4n2[C@@]2(c4noc(=O)[nH]4)C[C@@H]2C)CCC3)cc(C)c1F` [Compound 521, 3-[(1S,2S)-1-[5-[(4S)-2,2-dimethyltetrahydropyran-4-yl]-2-[2-(4-fluoro-3,5-dimethyl-phenyl)-3-[3-(5-fluorophthalazin-6-yl)-2-oxo-imidazol-1-yl]-4,6,7,8-tetrahydropyrazolo[4,3-c]azepine-5-carbonyl]indol-1-yl]-2-methyl-cyclopropyl]-4H-1,2,4-oxadiazol-5-one] was 197 nM.
Consider `Cc1cc(-n2nc3c(c2-n2ccn(-c4ccc5c(cnn5C)c4F)c2=O)[C@@H]2CC[C@H](C3)N2C(=O)c2cc3cc([C@H]4CCOC5(CC5)C4)ccc3n2[C@@]2(c3noc(=O)[nH]3)C[C@H]2C)cc(C)c1F` [Compound 542, 3-((1S,2R)-1-(2-((4S,7R)-3-(3-(4-fluoro-1-methyl-1H-indazol-5-yl)-2-oxo-2,3-dihydro-1H-imidazol-1-yl)-2-(4-fluoro-3,5-dimethylphenyl)-2,4,5,6,7,8-hexahydro-4,7-epiminocyclohepta [c]pyrazole-9-carbonyl)-5-((S)-4-oxaspiro[2.5]octan-7-yl)-1H-indol-1-yl)-2-methylcyclopropyl)-1,2,4-oxadiazol-5 (4H)-one], for which the 50% effective concentration (EC50) amounted to 1620 nM.
The value for `CCP(=O)(CC)c1ccc(-n2ccn(-c3c4c(nn3-c3cc(C)c(F)c(C)c3)CCCN(C(=O)c3cc5cc(C6CCOCC6)ccc5n3[C@@]3(c5noc(=O)[nH]5)C[C@@H]3C)C4)c2=O)cc1NC` [Compound 506, 3-[(1S,2S)-1-[2-[3-[3-[4-diethylphosphoryl-3-(methylamino)phenyl]-2-oxo-imidazol-1-yl]-2-(4-fluoro-3,5-dimethyl-phenyl)-4,6,7,8-tetrahydropyrazolo[4,3-c]azepine-5-carbonyl]-5-tetrahydropyran-4-yl-indol-1-yl]-2-methyl-cyclopropyl]-4H-1,2,4-oxadiazol-5-one] was 757 nM; that for `Cc1cc(-n2nc3c(c2-n2ccn(-c4ccc5c(cnn5C)c4F)c2=O)CN(C(=O)c2cc4cc([C@H]5CCOC(C)(C)C5)ccc4n2[C@@]2(c4noc(=O)[nH]4)C[C@@H]2C)[C@@H](C)CC3)cc(C)c1F` [Compound 601, 3-[(1S,2S)-1-[5-[(4S)-2,2-dimethyltetrahydropyran-4-yl]-2-[(6S)-2-(4-fluoro-3,5-dimethyl-phenyl)-3-[3-(4-fluoro-1-methyl-indazol-5-yl)-2-oxo-imidazol-1-yl]-6-methyl-4,6,7,8-tetrahydropyrazolo[4,3-c]azepine-5-carbonyl]indol-1-yl]-2-methyl-cyclopropyl]-4H-1,2,4-oxadiazol-5-one] was at least 10000 nM; that for `Cc1cc(-n2nc3c(c2-n2ccn(-c4ccc5ccncc5c4F)c2=O)[C@@H]2CCC[C@H](C3)N2S(=O)(=O)c2cc3cc([C@H]4CCOC(C)(C)C4)ccc3n2[C@@]2(c3noc(=O)[nH]3)C[C@@H]2C)cc(C)c1F` [Compound 602, 3-[(1S,2S)-1-[5-[(4S)-2,2-dimethyltetrahydropyran-4-yl]-2-[[(1S,8R)-4-(4-fluoro-3,5-dimethyl-phenyl)-3-[3-(8-fluoro-7-isoquinolyl)-2-oxo-imidazol-1-yl]-4,5,12-triazatricyclo[6.3.1.02,6]dodeca-2,5-dien-12-yl]sulfonyl]indol-1-yl]-2-methyl-cyclopropyl]-4H-1,2,4-oxadiazol-5-one] was 1100 nM.
`Cc1cc(-n2nc3c(c2-n2ccn(-c4ccc5c(cnn5C)c4F)c2=O)[C@@H]2CC[C@H](C3)N2C(=O)c2cc3nc([C@H]4CCOC(C)(C)C4)ccc3n2[C@@]2(c3noc(=O)[nH]3)C[C@@H]2C)cc(C)c1F` [Compound 217, 3-[(1S,2S)-1-[5-[(4S)-2,2-dimethyltetrahydropyran-4-yl]-2-[(1S,8R)-4-(4-fluoro-3,5-dimethyl-phenyl)-3-[3-(4-fluoro-1-methyl-indazol-5-yl)-2-oxo-imidazol-1-yl]-4,5,11-triazatricyclo[6.2.1.02,6]undeca-2,5-diene-11-carbonyl]pyrrolo[3,2-b]pyridin-1-yl]-2-methyl-cyclopropyl]-4H-1,2,4-oxadiazol-5-one]: the concentration for a half-maximal effect (EC50) turned out to be 907 nM.
The value for `Cc1cc(-n2nc3c(c2-n2ccn(-c4ccc5c(cnn5C)c4F)c2=O)[C@@H]2CCC[C@H](C3)N2S(=O)(=O)c2cc3cc([C@@H]4CCOC5(CC5)C4)ccc3n2[C@@]2(c3noc(=O)[nH]3)C[C@@H]2C)cc(C)c1F` [Compound 604, 3-[(1S,2S)-1-[2-[[(1S,8R)-4-(4-fluoro-3,5-dimethyl-phenyl)-3-[3-(4-fluoro-1-methyl-indazol-5-yl)-2-oxo-imidazol-1-yl]-4,5,12-triazatricyclo[6.3.1.02,6]dodeca-2,5-dien-12-yl]sulfonyl]-5-[(7R)-4-oxaspiro[2.5]octan-7-yl]indol-1-yl]-2-methyl-cyclopropyl]-4H-1,2,4-oxadiazol-5-one] was 839 nM.

Values taken from patent US12617783B2, “Heterocyclic GLP-1R agonists” (BIOMEA FUSION, INC., priority 2024, dated 2026).
